Measured values taken from patent US10544112B2, “Identification of ebsulfur analogues with broad-spectrum antifungal activity” (priority 2017, dated 2020).
≈ marks a conversion by molar mass, not a printed value. Like-named read-outs stand apart in the source and are kept apart here. Marks after values point to notes of the source that are not given here.

How the values were obtained:
[1] = tested on: C. albicans ATCC 64124 (strain B); experiment: microbe, parasite or virus in culture; type: cell-based, Candida albicans; settings: for MIC-0: strain B, compounds 1-4n and AmB, 48 h, RPMI 1640
Method in brief: (§1)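 Yeasts were precultured in potato dextrose broth, then diluted in RPMI 1640 (pH 7.0, 0.165 M MOPS) to a final 5×10^3 CFU/mL. Compounds were serially diluted two-fold to 12.5-0.02 μg/mL. Plates were incubated 48 h at 35° C.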

[2] = tested on: C. albicans ATCC 90819(R) (strain D); experiment: microbe, parasite or virus in culture; type: cell-based, Candida albicans; settings: for MIC-0: strain D, compounds 1-4n and AmB, 48 h, RPMI 1640
Method in brief: as §1

[3] = tested on: C. albicans ATCC MYA-1003(R) (strain G); experiment: microbe, parasite or virus in culture; type: cell-based, Candida albicans; settings: for MIC-0: strain G, compounds 1-4n and AmB, 48 h, RPMI 1640
Method in brief: as §1

[4] = tested on: C. albicans ATCC MYA-1237(R) (strain F); experiment: microbe, parasite or virus in culture; type: cell-based, Candida albicans; settings: for MIC-0: strain F, compounds 1-4n and AmB, 48 h, RPMI 1640
Method in brief: as §1

[5] = tested on: C. albicans ATCC MYA-2310(S) (strain E); experiment: Antifungal MIC determination (CLSI M27-A3, 96-well); type: cell-based, Candida albicans; settings: for MIC-0: strain E, compounds 1-4n and AmB, 48 h, RPMI 1640
Method in brief: as §1

[6] = tested on: C. albicans ATCC MYA-2876(S) (strain C); experiment: as above; type: cell-based, Candida albicans; settings: for MIC-0: strain C, compounds 1-4n and AmB, 48 h, RPMI 1640
Method in brief: as §1

[7] = tested on: Candida albicans ATCC 10231 (strain A); experiment: as above; type: cell-based; settings: for MIC-0: strain A, compounds 1-4n and AmB, 48 h, RPMI 1640
Method in brief: as §1

[8] = tested on: Candida glabrata ATCC 2001 (strain H); experiment: as above; type: cell-based; settings: for MIC-0: compounds 1-4n and AmB, 48 h, RPMI 1640; for MIC: Nakaseomyces glabratus
Method in brief: as §1

[9] = tested on: Candida krusei ATCC 6258 (strain I); experiment: as above; type: cell-based; settings: for MIC-0: compounds 1-4n and AmB, 48 h, RPMI 1640; for MIC: Pichia kudriavzevii
Method in brief: as §1

[10] = tested on: Candida parapsilosis ATCC 22019 (strain J); experiment: as above; type: cell-based; settings: for MIC-0: compounds 1-4n and AmB, 48 h, RPMI 1640; for MIC: Lodderomyces parapsilosis
Method in brief: as §1

[11] = tested on: Aspergillus flavus ATCC MYA-3631 (strain K); experiment: Antifungal MIC determination, filamentous fungi spores; type: cell-based; settings: all compounds; for MIC: Aspergillus flavus, read-out: MIC-0
Method in brief: (§2)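 CLSI M27-A3 microdilution, modified; RPMI 1640/0.165 M MOPS pH 7.0; final drug 12.5-0.02 μg/mL (2-fold series), inoculum 5×10^3 CFU/mL; 48 h, 35° C. Aspergillus: spores from 3-5 day PDA cultures at 25° C, tested likewise.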

[12] = tested on: Aspergillus nidulans ATCC 38163 (strain L); experiment: as above; type: cell-based; settings: for MIC-0: strain L, spores
Method in brief: as §2

[13] = tested on: Aspergillus terreus ATCC MYA-3633 (strain M); experiment: as above; type: cell-based; settings: for MIC: Aspergillus terreus, read-out: MIC-0
Method in brief: as §2

[14] = tested on: C. albicans ATCC 64124 (strain B); type: cell-based, Candida albicans
Protocol: The efficiency of the compounds to kill C. albicans ATCC 64124 (strain B) was monitored using a previously published protocol. The cell suspensions were prepared to achieve an inoculum of approximately 1-4×10^5 CFU/mL in RPMI 1640 medium at 35° C. […] After fungal cell addition, at 0, 3, 6, 9, 12, and 24 h, the tubes were vortexed and 100 μL aliquots were removed from each solution, spread onto PDA plates, and incubated at 35° C. Colony counts were determined after 24 h of incubation. The experiments were performed in duplicate (FIG. 2).
Time-kill assays with ebsulfur (2a) and analogue 3a (FIG. 2) were performed to determine the rate of fungicidal activity of the compounds if the invention.

[15] = tested on: C. albicans ATCC 10231 (strain A); experiment: ROS production assay (DCFH-DA); type: cell-based, Candida albicans; settings: 1× and 2× MIC (H2O2 1 mM), 1-h treatment
Protocol: ROS production assay was performed as previously described with minor modifications. […] Once entering the cells, the DCFH-DA probe is first hydrolyzed to the non-fluorescent 2′,7′-dichlorodihydrofluorescein (DCFH) by cellular esterases. […] A colony of C. albicans ATCC 10231 (strain A) was used to inoculate 5 mL of PDB in a Falcon tube and grown overnight at 35° C. at 200 rpm.
Thus, whether the compounds of the invention would also induce ROS against C. albicans was studied. […] 2′,7′-dichlorodihydrofluorescin diacetate (DCFH-DA) was then used to detect and visualize ROS production (FIG. 5). As a positive control, cells were treated with H2O2, which is an inducer of hydroxyl radical formation.

[16] = tested on: Candida albicans ATCC 10231 (strain A); settings: azoles, previously reported (Shrestha 2015); cited from earlier work
[17] = tested on: C. albicans ATCC 64124 (strain B); settings: azoles, previously reported (Shrestha 2015); cited from earlier work
[18] = tested on: C. albicans ATCC MYA-2876(S) (strain C); settings: azoles, previously reported (Shrestha 2015); cited from earlier work
[19] = tested on: C. albicans ATCC 90819(R) (strain D); settings: azoles, previously reported (Shrestha 2015); cited from earlier work
[20] = tested on: C. albicans ATCC MYA-2310(S) (strain E); settings: azoles, previously reported (Shrestha 2015); cited from earlier work
[21] = tested on: C. albicans ATCC MYA-1237(R) (strain F); settings: azoles, previously reported (Shrestha 2015); cited from earlier work
[22] = tested on: C. albicans ATCC MYA-1003(R) (strain G); settings: azoles, previously reported (Shrestha 2015); cited from earlier work
[23] = tested on: Aspergillus nidulans ATCC 38163 (strain L); settings: azoles, previously reported (Shrestha 2015); cited from earlier work
[24] = tested on: Aspergillus strains (K-M); experiment: Antifungal MIC, summary over Aspergillus strains; type: cell-based; settings: spores
Protocol: Fungal MIC determination experiments were performed using untreated 96-well plates (Corning). Cells were counted either by using a hemocytometer (Hausser Scientific, Horsham, Pa., USA) or by measuring optical density at attenuance of 600 nm (OD600) by using a Genesys 20 spectrophotometer (Thermo Scientific, Waltham, Mass., USA). Spectrophotometric and colorimetric measurements in 96-well plates were performed using a SpectraMax M5 spectrometer (Molecular Devices, Sunnyvale, Calif., USA).
Yeast strains Candida albicans ATCC 10231 (strain A), C. albicans ATCC 64124 (strain B), and C. albicans ATCC MYA-2876(S) (strain C) were kindly provided by Dr. Jon Y. Takemoto (Utah State University, Logan, UT, USA). C. albicans ATCC MYA-90819(R) (strain D), C. albicans ATCC MYA-2310(S) (strain E), C. albicans ATCC 1237(R) (strain F), C. albicans ATCC MYA-1003(R) (strain G), Candida glabrata ATCC 2001 (strain H), Candida krusei ATCC 6258 (strain I), and Candida parapsilosis ATCC 22019 (strain J) were obtained from the American Type Culture Collection (ATCC, Manassas, Va., USA). […]
The MIC values against fungal strains were determined based on a previously published protocol. MIC values for ebsulfur (2a) analogues against fungal cells were evaluated in 96-well plates as described in the CLSI document M27-A3 with minor modifications. […]

[25] = Solubility in the RPMI 1640 medium used for MIC determination; settings: medium of MIC determination
[26] = strain M, all compounds, spores
[27] = ATCC2001, strain H, azoles, read-out: MIC-2
[28] = ATCC6258, strain I, azoles, read-out: MIC-2
[29] = ATCC22019, strain J, azoles, read-out: MIC-2
[30] = Candida albicans, read-out: MIC-2

O=c1c2ccccc2[se]n1-c1ccccc1 [Compound 1, ebselen, reference compound]
MIC-0 [1]: 12.5 µg/mL (≈ 45.6 µM) | MIC-0 [2]: 1.56 µg/mL (≈ 5.69 µM) | MIC-0 [3]: 12.5 µg/mL (≈ 45.6 µM) | MIC-0 [4]: >12.5 µg/mL | MIC-0 [5]: 3.13 µg/mL (≈ 11.4 µM) | MIC-0 [6]: 12.5 µg/mL (≈ 45.6 µM) | MIC-0 [7]: 12.5 µg/mL (≈ 45.6 µM) | MIC-0 ([8]; strain H): 1.56 µg/mL (≈ 5.69 µM) | MIC-0 ([9]; strain I): 1.56 µg/mL (≈ 5.69 µM) | MIC-0 ([10]; strain J): 6.25 µg/mL (≈ 22.8 µM) | MIC-0 [11]: 6.25 µg/mL (≈ 22.8 µM) | MIC-0 [12]: 1.56 µg/mL (≈ 5.69 µM) | MIC-0 [13, 26]: 1.56 µg/mL (≈ 5.69 µM) | fungicidal or fungistatic effect ([14]; 1× MIC): potent fungicidal activity | time of complete fungal cell death ([14]; 1× MIC): 6 h | time from which completely fungicidal ([14]; 2× MIC): 3 h | ROS induction (DCFH-DA fluorescence) [15]: highly fluorescent

OC(Cn1cncn1)(Cn1cncn1)c1ccc(F)cc1F [FLC, fluconazole]
MIC [8, 27]: > 31.2 µg/mL | MIC [9, 28]: > 31.2 µg/mL | MIC [10, 29]: 1.95 µg/mL (≈ 6.37 µM) | MIC [11]: 6.25 µg/mL (≈ 20.4 µM) | MIC-2 [16]: 62.5^a μg/mL | MIC-2 [17]: >125^a μg/mL | MIC-2 [18]: 15.6^a μg/mL | MIC-2 [19]: >125^a μg/mL | MIC-2 [20]: >125^a μg/mL | MIC-2 [21]: 62.5^a μg/mL | MIC-2 [22]: 62.5^a μg/mL | MIC-0 [23]: 6.25^a μg/mL

O=c1c2ccccc2sn1C1CCCCCCC1 [Compound 3n]
MIC-0 [1]: 3.13 µg/mL (≈ 12 µM) | MIC-0 [2]: 6.25 µg/mL (≈ 23.9 µM) | MIC-0 [3]: 6.25 µg/mL (≈ 23.9 µM) | MIC-0 [4]: 6.25 µg/mL (≈ 23.9 µM) | MIC-0 [5]: 6.25 µg/mL (≈ 23.9 µM) | MIC-0 [6]: 6.25 µg/mL (≈ 23.9 µM) | MIC-0 [7]: 3.13 µg/mL (≈ 12 µM) | MIC-0 ([8]; strain H): 3.13 µg/mL (≈ 12 µM) | MIC-0 ([9]; strain I): 0.39 µg/mL (≈ 1.49 µM) | MIC-0 ([10]; strain J): 3.13 µg/mL (≈ 12 µM) | MIC-0 [11]: ≤0.02 µg/mL | MIC-0 [12]: 0.05 µg/mL (≈ 0.191 µM) | MIC-0 [13, 26]: ≤0.02 µg/mL | MIC against Aspergillus strains K-M, range [24]: ≤0.02 to 0.05 µg/mL

CC[C@@H]([C@H](C)O)n1ncn(-c2ccc(N3CCN(c4ccc(OC[C@@H]5CO[C@@](Cn6cncn6)(c6ccc(F)cc6F)C5)cc4)CC3)cc2)c1=O [POS, posaconazole]
MIC [8, 27]: 0.12 µg/mL (≈ 0.171 µM) | MIC [9, 28]: 0.06 µg/mL (≈ 0.0856 µM) | MIC [10, 29]: < 0.03 µg/mL | MIC [11]: 0.24 µg/mL (≈ 0.342 µM) | MIC [13, 26]: 0.48 µg/mL (≈ 0.685 µM) | MIC-2 [16]: 0.5^a μg/mL | MIC-2 [17]: >62.5^a μg/mL | MIC-2 [18]: 7.8a μg/mL | MIC-2 [19]: 31.2^a μg/mL | MIC-2 [20]: 31.2^a μg/mL | MIC-2 [21]: 15.6^a μg/mL | MIC-2 [22]: 15.6^a μg/mL | MIC-0 [23]: 0.195^a μg/mL

C[C@@H](c1ncncc1F)[C@](O)(Cn1cncn1)c1ccc(F)cc1F [VOR, voriconazole, reference compound]
MIC ([1]; Candida albicans, ATCC64124, read-out: MIC-2): > 31.2 µg/mL | MIC ([2]; Candida albicans, ATCC90819, read-out: MIC-2): 1.95 µg/mL (≈ 5.58 µM) | MIC [3, 30]: 7.8 µg/mL (≈ 22.3 µM) | MIC [4, 30]: 0.975 µg/mL (≈ 2.79 µM) | MIC [5, 30]: 1.95 µg/mL (≈ 5.58 µM) | MIC [6, 30]: 0.975 µg/mL (≈ 2.79 µM) | MIC ([7]; Candida albicans, ATCC10231, read-out: MIC-2): 7.8 µg/mL (≈ 22.3 µM) | MIC ([8]; ATCC2001, read-out: MIC-2): 0.06 µg/mL (≈ 0.172 µM) | MIC ([9]; ATCC6258, read-out: MIC-2): 0.12 µg/mL (≈ 0.344 µM) | MIC ([10]; ATCC22019, read-out: MIC-2): < 0.03 µg/mL | MIC ([12]; Aspergillus nidulans, ATCC38163, read-out: MIC-0): 0.03 µg/mL (≈ 0.0859 µM) | MIC [13]: 0.12 µg/mL (≈ 0.344 µM) | MIC against Aspergillus strains K-M, range [24]: 0.03 to 0.24 µg/mL

O=c1c2ccccc2sn1-c1ccc2ccccc2n1 [Compound 2o]
solubility in the RPMI 1640 medium [25]: solubility issues

O=c1c2ccccc2sn1C12CC3CC(CC(C3)C1)C2 [Compound 3o]
solubility in the RPMI 1640 medium [25]: not soluble
